Experimental data as given in patent US5281710A, “Dynemicin analogs: synthesis, methods of preparation and use” (The Scripps Research Institute, priority 1992, dated 1994).
Entries after “also recorded” stand apart in the source; their conditions may differ. Like-named read-outs stand apart in the source and are kept apart here.

Key:
[1] = tested on: cancer cell lines; experiment: cells; format: cell-based; conditions: Average data obtained from 5~10 cell lines; read-out: IC50 (average)
Description: (§1) In addition to the screening already discussed, several of the before-described compounds and chimeras were screened against several or all of a panel of ten to twenty-five cancerous cell lines as target cells and seven "normal" cell preparations. This screening utilized a sulforhodamine B cytotoxidity assay as discussed below.
SULFORHODAMINE B CYTOTOXICITY ASSAY
a. Stock drug solutions were prepared by dissolving drug in the appropriate solvent (determined during chemical characterization studies) and sterile filtering the drug-solvent solution through a sterile 0.2μ filter unit. An aliquot was taken from each filtered drug solution and the O.D. was measured to determine the drug concentration.
f. Incubate (37° C., 5-10 percent CO2 in humidified incubator) plates for a total of 72 hours. Check plates at 24 hour intervals microscopically for signs of cytotoxicity.
(§2) IC50 values; i.e., the concentration of Compound required to kill one-half of the treated cells, were then calculated.
All other cells or cell lines were obtained from the American Type Culture Collection (ATCC) (all except CHO cells are human or mouse cancer cell lines as described by the ATC).
Tables 1 and 2 herein below provide average IC50 data from five to all ten of the above cancer cells lines for fused ring enediyne compounds disclosed herein. Those tables provide a generic structure and a description of the R group of that generic structure for each compound. Compound numbers as noted hereinbefore are also provided. Table 3 contains data for two fused-ring enediyne compounds (Compounds 47 and 120) as well as data for six chimers. Table 4 contains cancer cell and noraml cell cytotoxicity data for one select fused ring enediyne, Compound 153 against a number of "normal" cell preparations and tumor cell lines. Table 5 contains cancer cell and normal cell cytotoxicity data for another fused ring enediyne, Compound 250 against a similar panel of cells.

[2] = Chemical stability; format: physicochemical
[3] = tested on: φX174 Form I DNA; experiment: φX174 supercoiled DNA cleavage, agarose gel; format: biochemical; conditions: for DNA cleavage potency: pH 8.5, 1000 and 100 μM
Description: The ethereal solution of Compound 40 produced by the LiAlH4 reduction of Compound 21 (39 mg, 0.10 mmol) was evaporated in vacuo to dryness and the residue dissolved in THF (4 mL) to give a 25 mM solution of Compound 40, assuming complete conversion of Compound 21. […]
Thus, a vial containing a 50 micromolar per base pair solution […] of the same buffer solution and 2.0 microliters of a 5.0 millimolar ethanol solution of Compound 40.
[…] A 2.0 microliter portion of glycerol loading buffer solution containing bromothymol blue indicator was added to each vial. A 10 microliter aliquot was then drawn from each. Gel electrophoresis analysis of the aliquots was performed using a 1.0 percent agarose gel with ethidium bromide run at 115 volts for 1 hour. DNA cleavage was indicated by the formation of nicked relaxed circular DNA (form II) or linearized DNA (form III), which was detected by visual inspection of the gel under 310 nanometer ultraviolet light using ethidium bromide.

[4] = tested on: HL-60 promyeocytic leukemia cells; experiment: Sulforhodamine B cytotoxicity, HL-60; format: cell-based
Description: as §1, §2

[5] = tested on: Capan-1 pancreatic carcinoma cells; experiment: Sulforhodamine B cytotoxicity, Capan-1; format: cell-based
Description: as §1, §2

[6] = tested on: MCF-7 breast carcinoma cells; experiment: Sulforhodamine B cytotoxicity, MCF-7; format: cell-based; conditions: Table 7, MCF-7, read-out: Cytotoxicity (IC50)
Description: as §1, §2

[7] = tested on: UCLA P-3 non-small cell lung carcinoma cells; experiment: Sulforhodamine B cytotoxicity, UCLA-P3; format: cell-based, human; conditions: read-out: Cytotoxicity (IC50)
Description: as §1, §2
UCLA P-3 Dr. D. Morton, University of California, […]

[8] = tested on: MOLT-4 (Leukemia) cell line; experiment: cells; format: cell-based
Description: as §1, §2

[9] = tested on: H-322 lung carcinoma cells; experiment: Sulforhodamine B cytotoxicity, H-322; format: cell-based; conditions: Table 7, H-322
Description: as §1, §2

[10] = tested on: NHDF normal human dermal fibroblasts; experiment: in vitro; format: cell-based; conditions: for IC50: NHDF, read-out: Range of Average IC50 Values, NHDF
Description: as §1, §2
NHDF Normal human dermal fibroblasts

[11] = tested on: P-388 mouse lymphoma cells; experiment: Sulforhodamine B cytotoxicity, P-388; format: cell-based; conditions: Table 7, P-388, read-out: Cytotoxicity (IC50)
Description: as §1, §2

[12] = tested on: Ovcar-3 ovarian carcinoma cells; experiment: Sulforhodamine B cytotoxicity, Ovcar-3; format: cell-based; conditions: read-out: Cytotoxicity (IC50)
Description: as §1, §2

[13] = tested on: SK-Mel-28 melanoma cells; experiment: Sulforhodamine B cytotoxicity, SK-Mel-28; format: cell-based
Description: as §1, §2

[14] = tested on: CHO Chinese hamster ovary cells; experiment: Sulforhodamine B cytotoxicity, CHO; format: cell-based; conditions: Table 7, CHO
Description: as §1, §2

[15] = tested on: HT-29 colon carcinoma cells; experiment: Sulforhodamine B cytotoxicity, HT-29; format: cell-based; conditions: Table 7, HT-29, read-out: Cytotoxicity (IC50)
Description: as §1, §2

[16] = tested on: MCF-7(ADR) breast carcinoma cells; experiment: Sulforhodamine B cytotoxicity, MCF-7/ADR; format: cell-based; conditions: Homo sapiens, NCI/ADR-RES, Adriamycin resistant
Description: as §1, §2

[17] = tested on: 93 base-pair Sal I - Sph I double-stranded DNA fragment of pBR322; experiment: DNase I footprinting of oligosaccharide glycosides; format: binding; conditions: 37° C., 30 minutes pre-incubation
Source text: Footprinting studies the O-methyl glycosides of saccharides A, an analog of C, F, G and H, Compounds A-1, C'-1, F-1, G-1 and H-1, respecitvely, as shown below, were designed to probe these questions.
The oligosaccharides A-1, C'-1, F-1, G-1 and H-1 were obtained by chemical synthesis following procedures similar to those discussed before. The 93 base-pair Sal I - Sph I double-stranded DNA fragment of pBR322 was obtained enzymatically and was [5-^32 P]-labeled on one strand. pBR322 DNA was cleaved at the unique Sal I site, dephosphorylated using calf intestine phosphatase, (5'-^32 P]-phosphorylated using T4 polynucletide kinase and [g-^32 P] ATP (4.5 ^m Ci/pmol) , and cleaved again at the unique Sph I site. These precursors generated a 93 base-pair double-stranded fragment, (5'-^32 P)-labeled at the Sal I end, which was purified by gel electrophosresis in a nondenaturing 10 percent polyacrylamide gel and subsequent column chromatography on Sephadex G-25. The oligosaccharides were pre-incubated with the DNA fragment at 37° C. for 30 minutes and DNase I was added to cleave the DNA and generate footprinting patterns by autoradiography.
The degree of protection against DNase I digestion offered by both the natural and unnatural stereoisomers was determined by comparing the amount of radioactivity in adjacent lanes along the electrophoresis gel. […]

[18] = 5.0 mM, pH 8.5 and 9.0, 48 hours, 37° C.
[19] = Homo sapiens, HL-60, HL-60, read-out: IC50
[20] = Homo sapiens, CAPAN-1, Capan-1, read-out: IC50
[21] = Homo sapiens, SK-MEL-28, SK-Mel-28, read-out: IC50
[22] = 10 mM, pH 8.5, 48 hours, 37° C.

In the case of COc1ccc2c(c1)N(C(=O)Oc1ccccc1)[C@H]1C#C/C=C\C#C[C@]3(O)CCC[C@]14O[C@]243 (relative stereo) [Compound 41], the IC50 [1] is reported as 20 µM, the chemical stability [2] is reported as “reasonable stability under neutral and basic conditions; also recorded: cyclized rapidly under acidic conditions” and the DNA cleavage ([3]; 2 mM, pH 5.0) is reported as “also cleaved DNA”.

CC(C)(COC(=O)N1c2ccccc2[C@@]23O[C@]24CCC[C@H]3C#C/C=C\C#C[C@H]14)S(=O)(=O)c1ccccc1 (relative stereo) [Compound 429] showed an IC50 ([4]; Homo sapiens, HL-60, Table 7, HL-60, read-out: Cytotoxicity (IC50)) of 25000 nM, an IC50 ([5]; Homo sapiens, CAPAN-1, Table 7, Capan-1, read-out: Cytotoxicity (IC50)) of 50 µM and an IC50 ([6]; Homo sapiens, MCF7, 72 h) of 25 µM. It also gave an IC50 ([7]; Homo sapiens, UCLA P-3, Table 7, UCLA-P3) of 50 µM, an IC50 ([8]; Homo sapiens, MOLT-4, Table 7, Molt-4, read-out: Cytotoxicity (IC50)) of 100000 nM and an IC50 ([9]; NCI-H322, read-out: Cytotoxicity (IC50)) of 50 µM. For the same compound, the “Cytotoxicity (IC50)” value ([10]; Table 7, NHDF) was “Non-Toxic”, the IC50 ([11]; Mus musculus, P388) was 13 µM and the IC50 ([12]; Homo sapiens, OVCAR-3, Table 7, Ovcar-3) was 50 µM. The IC50 ([13]; Homo sapiens, SK-MEL-28, Table 7, SK-Mel-28, read-out: Cytotoxicity (IC50)) was less than 100 µM, the “Cytotoxicity (IC50)” value [14] was “Non-Toxic” and the DNA cleavage [3, 18] was “no DNA cleaving ability”. For the same compound, the IC50 ([15]; Homo sapiens, HT-29, 72 h) was 25 µM.

In the case of O=C(OCCS(=O)(=O)c1ccccc1)N1c2ccccc2[C@@]23O[C@]24CCC[C@H]3C#C/C=C\C#C[C@H]14 [(+)-45], the IC50 [4, 19] is reported as greater than 98 nM, the IC50 [5, 20] is reported as 0.39 µM and the IC50 [16] is reported as 780 nM. For the same compound, the IC50 [13, 21] was 6.3 µM and the DNA cleavage potency [3] was “comparable potencies”.

In the case of O=C(OCCS(=O)(=O)c1ccccc1)N1c2ccccc2[C@]23O[C@@]24CCC[C@@H]3C#C/C=C\C#C[C@@H]14 [(-)-45], the IC50 [4, 19] is reported as 780 nM, the IC50 [5, 20] is reported as 1.6 µM and the IC50 ([8]; Homo sapiens, MOLT-4, Molt-4 leukemia cell line, read-out: IC50) is reported as 100 nM. For the same compound, the IC50 [16] was 1600 nM, the IC50 [13, 21] was 6.3 µM and the DNA cleavage potency [3] was “comparable potencies”.

N.N.[Cl][Pt][Cl] [Cis-Platin] showed an IC50 ([10]; control drugs) of 50 µM.

For COC12C#C/C=C\C#CC3NC4=CC(=O)C=CC45OC15C3(O)CCC2 (stereo not shown) [Compound 58], the chemical stability [2] was “stable molecules” and the DNA cleavage ([3]; 5 mM, pH 8.0, 24 hours) was “diminished activity against DNA”.

With COC12C#C/C=C\C#CC3N(C(=O)Oc4ccccc4)C4=CC(=O)C=CC45OC15C3(O)CCC2 (stereo not shown) [Compound 62] the chemical stability [2] was “stable molecules” and the DNA cleavage ([3]; 5 mM, pH 8.0, 24 hours) was “diminished activity against DNA”.

In the case of OC12CCCC3C#Cc4ccccc4C#CC1Nc1ccccc1C32O (stereo not shown) [Compound 76b], the chemical stability [2] is reported as “cyclized spontaneously at 25 °C in the presence of 1,4-cyclohexadiene” and the DNA cleavage [3, 22] is reported as “converted supercoiled .phi.X174 form I DNA”.

In the case of OC12CCCC3C#Cc4cc5ccccc5cc4C#CC1Nc1ccccc1C32O (stereo not shown) [Compound 87b], the chemical stability [2] is reported as “stable in the presence of 1,4-cyclohexadiene, but cycloaromatized at elevated temperature (65° C., two hours)” and the DNA cleavage [3, 22] is reported as “converted supercoiled .phi.X174 form I DNA”.

For CC(COC(=O)N1c2ccccc2C23OC24CCCC3C#CC=CC#CC14)S(=O)(=O)c1ccccc1 (stereo not shown) [Compound 428], the IC50 ([4]; Table 7, HL-60, read-out: Cytotoxicity (IC50)) was 1600 nM, the IC50 ([5]; Table 7, Capan-1, read-out: Cytotoxicity (IC50)) was 6.3 µM and the IC50 ([6]; 4320 min) was less than 100 µM. The IC50 ([7]; Table 7, UCLA-P3) was 13 µM, the IC50 ([8]; Table 7, Molt-4, read-out: Cytotoxicity (IC50)) was 1000 nM and the “Cytotoxicity (IC50)” value [9] was “Non-Toxic”. It also gave a CC50 ([10]; Table 7, NHDF, read-out: Cytotoxicity (IC50)) of less than 100 µM, an IC50 [11] of 1.6 µM and an IC50 ([12]; Table 7, Ovcar-3) of 13 µM. For the same compound, the IC50 ([13]; Table 7, SK-Mel-28, read-out: Cytotoxicity (IC50)) was less than 100 µM, the CC50 ([14]; read-out: Cytotoxicity (IC50)) was less than 100 µM and the DNA cleavage [3, 18] was “greatly reduced in vitro DNA cleaving ability”. For the same compound, the IC50 ([15]; 4320 min) was 13 µM.

For CCNC1COC(OC2C(OC)OC(C)C(NOC3CC(O)C(SC(=O)c4c(C)c(I)c(OC5OC(C)C(O)C(OC)C5O)c(OC)c4OC)C(C)O3)C2O)CC1OC (stereo not shown) [Compound F-1], the “protection of DNA against DNase I” value [17] was “concentration-dependent protection”.

In the case of CCNC1COC(OC2C(OC)OC(C)C(NOC3CC(O)C(SC(=O)c4c(C)c(I)c(OC5OC(C)C(O)C(OC)C5O)c(OC)c4OC)C(C)O3)C2O)CC1OC (stereo not shown) [Compound G-1], the “protection of DNA against DNase I” value [17] is reported as “no protection at the same concentrations”.

Work on COC1=C(C(=O)O)[C@H](C)[C@@]23O[C@]24c2cc(O)c5c(c2N[C@H]3C#C/C=C\C#C[C@H]14)C(=O)c1c(O)ccc(O)c1C5=O [Dynemicin A] yielded an IC50 ([10]; Homo sapiens, control drugs) of 0.01 µM.

N[C@@H](Cc1ccc(N(CCCl)CCCl)cc1)C(=O)O [Melphelan] showed an IC50 ([10]; Homo sapiens) of 100 µM.

CN(Cc1cnc2nc(N)nc(N)c2n1)c1ccc(C(=O)N[C@@H](CCC(=O)O)C(=O)O)cc1 [Methotrexate] showed an IC50 ([10]; Homo sapiens, control drugs) of 50 µM.

Compound CC(=O)O[C@H]1C(=O)[C@@]2(C)[C@H]([C@H](OC(=O)c3ccccc3)[C@]3(O)C[C@H](OC(=O)[C@H](O)[C@@H](NC(=O)c4ccccc4)c4ccccc4)C(C)=C1C3(C)C)[C@]1(OC(C)=O)CO[C@@H]1C[C@@H]2O [Taxol] has an IC50 ([10]; Homo sapiens, control drugs) of 0.01 µM.
